Key:
[1] = target: T1, S-methyl-5'-thioadenosine phosphorylase (Homo sapiens) (UniProt Q13126); assay: Kcat against human methylthioadenosine phosphorylase expressed in Escherichia coli BL21 DE3 cells
T1 sequence (whole entry): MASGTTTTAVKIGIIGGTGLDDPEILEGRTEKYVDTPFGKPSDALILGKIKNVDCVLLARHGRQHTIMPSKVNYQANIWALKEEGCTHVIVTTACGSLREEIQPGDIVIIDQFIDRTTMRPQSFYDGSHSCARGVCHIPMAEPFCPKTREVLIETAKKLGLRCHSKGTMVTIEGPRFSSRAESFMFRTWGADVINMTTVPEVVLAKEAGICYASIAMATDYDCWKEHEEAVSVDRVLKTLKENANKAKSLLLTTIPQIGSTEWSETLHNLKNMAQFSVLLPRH

[2] = target: T1, S-methyl-5'-thioadenosine phosphorylase (Homo sapiens); assay: Ratio of Kcat to Km against human Methylthioadenosine phosphorylase
[3] = substrate: CC(C)CSC[C@H]1O[C@@H](n2cnc3c(N)ncnc32)[C@H](O)[C@@H]1O; assay: (§1) Km against human methylthioadenosine phosphorylase expressed in Escherichia coli BL21 DE3 cells
[4] = substrate: CC(C)CCSC[C@H]1O[C@@H](n2cnc3c(N)ncnc32)[C@H](O)[C@@H]1O; assay: as §1
[5] = substrate: Nc1ncnc2c1ncn2[C@@H]1O[C@H](CSc2ncc[nH]2)[C@@H](O)[C@H]1O; assay: as §1
[6] = substrate: CCC(C)CSC[C@H]1O[C@@H](n2cnc3c(N)ncnc32)[C@H](O)[C@@H]1O; assay: as §1
[7] = substrate: Nc1ncnc2c1ncn2[C@@H]1O[C@H](CCc2ccccc2)[C@@H](O)[C@H]1O; assay: as §1
[8] = substrate: CSC[C@H]1O[C@@H](n2cnc3c(N)ncnc32)C(N=[N+]=[N-])[C@@H]1O; assay: as §1
[9] = substrate: CCCCSC[C@H]1O[C@@H](n2cnc3c(N)ncnc32)[C@H](O)[C@@H]1O; assay: as §1
[10] = substrate: Nc1ncnc2c1ncn2[C@@H]1O[C@H](CSc2ccccc2)[C@@H](O)[C@H]1O; assay: as §1
[11] = substrate: Cc1ccc(SC[C@H]2O[C@@H](n3cnc4c(N)ncnc43)[C@H](O)[C@@H]2O)cc1; assay: as §1
[12] = substrate: Cc1ccccc1SC[C@H]1O[C@@H](n2cnc3c(N)ncnc32)[C@H](O)[C@@H]1O; assay: as §1
[13] = substrate: COc1ccc(SC[C@H]2O[C@@H](n3cnc4c(N)ncnc43)[C@H](O)[C@@H]2O)cc1; assay: as §1
[14] = substrate: CSC[C@@H]1C[C@@H](O)[C@H](n2cnc3c(N)ncnc32)O1; assay: as §1
[15] = substrate: C[C@H]1O[C@@H](n2cnc3c(N)ncnc32)[C@H](O)[C@@H]1O; assay: as §1
[16] = substrate: Nc1ncnc2c1ncn2[C@@H]1O[C@H](CSc2ccncc2)[C@@H](O)[C@H]1O; assay: as §1
[17] = substrate: Cc1cccc(SC[C@H]2O[C@@H](n3cnc4c(N)ncnc43)[C@H](O)[C@@H]2O)c1; assay: as §1
[18] = substrate: Nc1ncnc2c1ncn2[C@@H]1O[C@H](CSCCO)[C@@H](O)[C@H]1O; assay: as §1
[19] = substrate: Nc1ncnc2c1ncn2[C@@H]1O[C@H](COc2ccccc2)[C@@H](O)[C@H]1O; assay: as §1
[20] = substrate: Nc1ncnc2c1ncn2[C@@H]1O[C@H](CSc2ccc(C(F)(F)F)cc2)[C@@H](O)[C@H]1O; assay: as §1
[21] = substrate: Nc1ncnc2c1ncn2[C@@H]1O[C@H](CSCCc2ccccc2)[C@@H](O)[C@H]1O; assay: as §1
[22] = substrate: CSC[C@H]1O[C@@H](n2cnc3c(N)ncnc32)[C@H](N)[C@@H]1O; assay: as §1
[23] = substrate: CSC[C@H]1O[C@@H](n2cnc3c(N)ncnc32)C[C@@H]1O; assay: as §1
[24] = substrate: Nc1ncnc2c1ncn2[C@@H]1O[C@H](CSc2nccs2)[C@@H](O)[C@H]1O; assay: as §1
[25] = substrate: Nc1ncnc2c1ncn2[C@@H]1O[C@H](CNc2ccccc2)[C@@H](O)[C@H]1O; assay: as §1
[26] = substrate: CC(C)(C)SC[C@H]1O[C@@H](n2cnc3c(N)ncnc32)[C@H](O)[C@@H]1O; assay: as §1
[27] = substrate: Nc1ncnc2c1ncn2[C@@H]1O[C@H](CSC2CCCCC2)[C@@H](O)[C@H]1O; assay: as §1
[28] = substrate: CCSC[C@H]1O[C@@H](n2cnc3c(N)ncnc32)[C@H](O)[C@@H]1O; assay: as §1
[29] = substrate: Nc1ncnc2c1ncn2[C@@H]1O[C@H](CSCCc2ccccn2)[C@@H](O)[C@H]1O; assay: as §1
[30] = substrate: Nc1ncnc2c1ncn2[C@@H]1O[C@H](CSc2ccccn2)[C@@H](O)[C@H]1O; assay: as §1
[31] = substrate: Nc1ncnc2c1ncn2[C@@H]1O[C@H](CSC2CCCC2)[C@@H](O)[C@H]1O; assay: as §1
[32] = substrate: Nc1ncnc2c1ncn2[C@@H]1O[C@H](CSc2ccc3ccccc3n2)[C@@H](O)[C@H]1O; assay: as §1
[33] = substrate: Nc1ncnc2c1ncn2[C@@H]1O[C@H](CSCc2ccccc2)[C@@H](O)[C@H]1O; assay: as §1

C[C@H]1O[C@@H](n2cnc3c(N)ncnc32)[C@H](O)[C@@H]1O
K cat [1]: 4.8 s⁻¹ | Ratio [2]: 0.8 µM⁻¹ s⁻¹

CCCCSC[C@H]1O[C@@H](n2cnc3c(N)ncnc32)[C@H](O)[C@@H]1O
K cat [1]: 5.9 s⁻¹ | Ratio [2]: 1.48 µM⁻¹ s⁻¹

CSC[C@H]1O[C@@H](n2cnc3c(N)ncnc32)[C@H](O)[C@@H]1O (stereo in doubt; 7)
K cat [1]: 0.0065 s⁻¹ | Ratio [2]: 0.0001 µM⁻¹ s⁻¹

CC(C)(C)SC[C@H]1O[C@@H](n2cnc3c(N)ncnc32)[C@H](O)[C@@H]1O
K cat [1]: 0.85 s⁻¹ | Ratio [2]: 0.05 µM⁻¹ s⁻¹

CSC[C@H]1O[C@@H](n2cnc3c(N)ncnc32)[C@H](O)[C@@H]1O (stereo in doubt; 1)
K cat [1]: 4.6 s⁻¹ | Ratio [2]: 3.2 µM⁻¹ s⁻¹

Nc1ncnc2c1ncn2[C@@H]1O[C@H](CSC2CCCCC2)[C@@H](O)[C@H]1O
K cat [1]: 1.57 s⁻¹ | Ratio [2]: 0.45 µM⁻¹ s⁻¹

Nc1ncnc2c1ncn2[C@@H]1O[C@H](CSCCO)[C@@H](O)[C@H]1O
K cat [1]: 1.46 s⁻¹ | Ratio [2]: 0.058 µM⁻¹ s⁻¹

Nc1ncnc2c1ncn2[C@@H]1O[C@H](CSc2ccncc2)[C@@H](O)[C@H]1O
K cat [1]: 0.23 s⁻¹ | Ratio [2]: 0.26 µM⁻¹ s⁻¹

Nc1ncnc2c1ncn2[C@@H]1O[C@H](CSc2ccc(C(F)(F)F)cc2)[C@@H](O)[C@H]1O
K cat [1]: 0.3 s⁻¹ | Ratio [2]: 0.17 µM⁻¹ s⁻¹

Cc1cccc(SC[C@H]2O[C@@H](n3cnc4c(N)ncnc43)[C@H](O)[C@@H]2O)c1
K cat [1]: 2.4 s⁻¹ | Ratio [2]: 1.2 µM⁻¹ s⁻¹

Nc1ncnc2c1ncn2[C@@H]1O[C@H](CSc2ccccn2)[C@@H](O)[C@H]1O
K cat [1]: 3.44 s⁻¹ | Ratio [2]: 0.66 µM⁻¹ s⁻¹

CSC[C@H]1O[C@@H](n2cnc3c(N)ncnc32)C(N=[N+]=[N-])[C@@H]1O (stereo partly drawn)
K cat [1]: 0.04 s⁻¹ | Ratio [2]: 1.1e-05 µM⁻¹ s⁻¹

Nc1ncnc2c1ncn2[C@@H]1O[C@H](CCc2ccccc2)[C@@H](O)[C@H]1O
K cat [1]: 4.6 s⁻¹ | Ratio [2]: 3.5 µM⁻¹ s⁻¹

CSC[C@@H]1C[C@@H](O)[C@H](n2cnc3c(N)ncnc32)O1
K cat [1]: 0.004 s⁻¹ | Ratio [2]: 0.001 µM⁻¹ s⁻¹

Cc1ccc(SC[C@H]2O[C@@H](n3cnc4c(N)ncnc43)[C@H](O)[C@@H]2O)cc1
K cat [1]: 1.4 s⁻¹ | Ratio [2]: 0.93 µM⁻¹ s⁻¹

CCC(C)CSC[C@H]1O[C@@H](n2cnc3c(N)ncnc32)[C@H](O)[C@@H]1O (stereo partly drawn)
K cat [1]: 4.2 s⁻¹ | Ratio [2]: 0.84 µM⁻¹ s⁻¹

CSC[C@H]1O[C@@H](n2cnc3c(N)ncnc32)[C@H](N)[C@@H]1O
K cat [1]: 0.67 s⁻¹ | Ratio [2]: 0.022 µM⁻¹ s⁻¹

Nc1ncnc2c1ncn2[C@@H]1O[C@H](COc2ccccc2)[C@@H](O)[C@H]1O
K cat [1]: 1.11 s⁻¹ | Ratio [2]: 0.09 µM⁻¹ s⁻¹

Cc1ccccc1SC[C@H]1O[C@@H](n2cnc3c(N)ncnc32)[C@H](O)[C@@H]1O
K cat [1]: 0.18 s⁻¹ | Ratio [2]: 0.03 µM⁻¹ s⁻¹

Nc1ncnc2c1ncn2[C@@H]1O[C@H](CSc2ccccc2)[C@@H](O)[C@H]1O
K cat [1]: 1.5 s⁻¹ | Ratio [2]: 0.5 µM⁻¹ s⁻¹

CC(C)CCSC[C@H]1O[C@@H](n2cnc3c(N)ncnc32)[C@H](O)[C@@H]1O
K cat [1]: 5.5 s⁻¹ | Ratio [2]: 1.96 µM⁻¹ s⁻¹

Nc1ncnc2c1ncn2[C@@H]1O[C@H](CSc2ncc[nH]2)[C@@H](O)[C@H]1O
K cat [1]: 3.8 s⁻¹ | Ratio [2]: 0.42 µM⁻¹ s⁻¹

Nc1ncnc2c1ncn2[C@@H]1O[C@H](CSc2ccc3ccccc3n2)[C@@H](O)[C@H]1O
K cat [1]: 3.16 s⁻¹ | Ratio [2]: 0.46 µM⁻¹ s⁻¹

Nc1ncnc2c1ncn2[C@@H]1O[C@H](CSCCc2ccccn2)[C@@H](O)[C@H]1O
K cat [1]: 1.01 s⁻¹ | Ratio [2]: 0.09 µM⁻¹ s⁻¹

CSC[C@H]1O[C@@H](n2cnc3c(N)ncnc32)C(F)[C@@H]1O (stereo partly drawn)
K cat [1]: 0.0004 s⁻¹

Nc1ncnc2c1ncn2[C@@H]1O[C@H](CSc2nccs2)[C@@H](O)[C@H]1O
K cat [1]: 2.49 s⁻¹ | Ratio [2]: 0.73 µM⁻¹ s⁻¹

Nc1ncnc2c1ncn2[C@@H]1O[C@H](CSC2CCCC2)[C@@H](O)[C@H]1O
K cat [1]: 1.5 s⁻¹ | Ratio [2]: 0.47 µM⁻¹ s⁻¹

CCSC[C@H]1O[C@@H](n2cnc3c(N)ncnc32)[C@H](O)[C@@H]1O
K cat [1]: 2.9 s⁻¹ | Ratio [2]: 1.6 µM⁻¹ s⁻¹

Nc1ncnc2c1ncn2[C@@H]1O[C@H](CNc2ccccc2)[C@@H](O)[C@H]1O
K cat [1]: 2.02 s⁻¹ | Ratio [2]: 0.24 µM⁻¹ s⁻¹

COc1ccc(SC[C@H]2O[C@@H](n3cnc4c(N)ncnc43)[C@H](O)[C@@H]2O)cc1
K cat [1]: 0.8 s⁻¹ | Ratio [2]: 0.11 µM⁻¹ s⁻¹

CSC[C@H]1O[C@@H](n2cnc3c(N)ncnc32)C[C@@H]1O
K cat [1]: 0.28 s⁻¹ | Ratio [2]: 0.09 µM⁻¹ s⁻¹

CC(C)CSC[C@H]1O[C@@H](n2cnc3c(N)ncnc32)[C@H](O)[C@@H]1O
K cat [1]: 2.3 s⁻¹ | Ratio [2]: 0.74 µM⁻¹ s⁻¹

Nc1ncnc2c1ncn2[C@@H]1O[C@H](CSCc2ccccc2)[C@@H](O)[C@H]1O
K cat [1]: 2.5 s⁻¹ | Ratio [2]: 0.53 µM⁻¹ s⁻¹

Nc1ncnc2c1ncn2[C@@H]1O[C@H](CSCCc2ccccc2)[C@@H](O)[C@H]1O
K cat [1]: 2.14 s⁻¹ | Ratio [2]: 0.43 µM⁻¹ s⁻¹

B1: S-methyl-5'-thioadenosine phosphorylase (Homo sapiens), Q13126 (protein)
chain: MASGTTTTAVKIGIIGGTGLDDPEILEGRTEKYVDTPFGKPSDALILGKIKNVDCVLLARHGRQHTIMPSKVNYQANIWALKEEGCTHVIVTTACGSLREEIQPGDIVIIDQFIDRTTMRPQSFYDGSHSCARGVCHIPMAEPFCPKTREVLIETAKKLGLRCHSKGTMVTIEGPRFSSRAESFMFRTWGADVINMTTVPEVVLAKEAGICYASIAMATDYDCWKEHEEAVSVDRVLKTLKENANKAKSLLLTTIPQIGSTEWSETLHNLKNMAQFSVLLPRH
Km [3]: 3.1 µM | Km [4]: 2.8 µM | Km [5]: 9 µM | Km [6]: 5 µM | Km [7]: 1.3 µM | Km [8]: 3600 µM | Km [9]: 4 µM | Km [10]: 3 µM | Km [11]: 1.5 µM | Km [12]: 5.6 µM | Km [13]: 7 µM | Km [14]: 3.9 µM | Km [15]: 6 µM | Km [16]: 0.88 µM | Km [17]: 2 µM | Km [18]: 25 µM | Km [19]: 12 µM | Km [20]: 1.7 µM | Km [21]: 5 µM | Km [22]: 30 µM | Km [23]: 3.1 µM | Km [24]: 3.4 µM | Km [25]: 8.5 µM | Km [26]: 17 µM | Km [27]: 3.5 µM | Km [28]: 1.8 µM | Km [29]: 10.2 µM | Km [30]: 5.2 µM | Km [31]: 3.2 µM | Km [32]: 6.9 µM | Km [33]: 4.6 µM
